In patent US10287301B2 (Achillion Pharmaceuticals, Inc., priority 2015, dated 2019):
Like-named read-outs stand apart in the source and are kept apart here.

Target: Human Factor D (Homo sapiens (Human), UniProt P00746)
Assay: Human Factor D Assay
Format: biochemical
Method: Human Factor D (purified from human serum, Complement Technology, Inc.) at 80 nM final concentration was incubated with test compound at various concentrations for 5 minutes at room temperature in 50 mM Tris, 1M NaCl, pH 7.5. A synthetic substrate Z-L-Lys-SBzl and DTNB (Ellman's reagent) are added to final concentrations of 100 μM each. […] IC50 values are calculated by nonlinear regression of complement Factor D reaction rates as a function of test compound concentration.

[1] = Human Factor D 80 nM, substrate Z-L-Lys-SBzl, read-out: IC50
[2] = Table 3, Human Factor D 80 nM, substrate Z-L-Lys-SBzl, read-out: IC50 (Stars)
[3] = Human Factor D, Table 3, read-out: IC50
[4] = Human Factor D assay of Example 8, Table 2, read-out: IC50

Human Factor D, sequence (P00746 26-253): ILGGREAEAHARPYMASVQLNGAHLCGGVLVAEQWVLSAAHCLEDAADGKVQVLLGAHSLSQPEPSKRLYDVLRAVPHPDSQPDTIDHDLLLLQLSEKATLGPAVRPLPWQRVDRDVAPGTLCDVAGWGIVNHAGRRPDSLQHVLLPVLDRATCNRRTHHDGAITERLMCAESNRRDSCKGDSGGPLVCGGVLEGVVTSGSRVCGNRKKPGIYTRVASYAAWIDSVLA

CC(=O)c1cn(CC(=O)N2C[C@H](F)C[C@H]2C(=O)Nc2cccc(Cl)c2-n2cncn2)c2ccc(-c3ccnnc3)cc12 [Compound 95, (2S,4R)-1-(2-(3-acetyl-5-(pyridazin-4-yl)-1H-indol-1-yl)acetyl)-N-(3-chloro-2-(1H-1,2,4-triazol-1-yl)phenyl)-4-fluoropyrrolidine-2-carboxamide]
IC50 [1]: > 10000 nM

NC(=O)c1nn(CC(=O)N2C[C@H](F)C[C@H]2C(=O)Nc2cccc(OCc3ccccc3)n2)c2ccc(-c3ccnnc3)cc12 [Compound 73, 1-(2-((2S,4R)-2-(6-(benzyloxy)pyridin-2-ylcarbamoyl)-4-fluoropyrrolidin-1-yl)-2-oxoethyl)-5-(pyridazin-4-yl)-1H-indazole-3-carboxamide]
IC50 [1]: > 10000 nM

CC(=O)c1nn(CC(=O)N2C[C@H](F)C[C@H]2C(=O)NC2C[C@H]2c2ccccc2Cl)c2ccc(-c3cnc(C)nc3)cc12 (stereo partly drawn) [Compound 460, (2S,4R)-1-(2-(3-acetyl-5-(2-methylpyrimidin-5-yl)-1H-indazol-1-yl)acetyl)-N-((2S)-2-(2-chlorophenyl)cyclopropyl)-4-fluoropyrrolidine-2-carboxamide]
IC50 [2]: < 1000 nM

CC(=O)c1nn(CC(=O)N2C[C@H](F)C[C@H]2C(=O)Nc2ccn(CC(F)(F)F)n2)c2ccc(-c3cnc4cc(C)nn4c3)cc12 [Compound 678, (2S,4R)-1-(2-(3-acetyl-5-(2-methylpyrazolo[1,5-a]pyrimidin-6-yl)-1H-indazol-1-yl)acetyl)-4-fluoro-N-(1-(2,2,2-trifluoroethyl)-1H-pyrazol-3-yl)pyrrolidine-2-carboxamide]
IC50 [3]: < 1000 nM

CC(=O)c1cn(CC(=O)N2C[C@H](F)C[C@H]2C(=O)Nc2cccc(Br)n2)c2ccc(-c3cnc(C(N)=O)nc3)cc12 [Compound 213, 5-(3-acetyl-1-(2-((2S,4R)-2-(6-bromopyridin-2-ylcarbamoyl)-4-fluoropyrrolidin-1-yl)-2-oxoethyl)-1H-indol-5-yl)pyrimidine-2-carboxamide]
IC50 [4]: < 1000 nM

CC(=O)c1nn(CC(=O)N2[C@H](C(=O)Nc3nc(Br)ccc3C)C[C@@]3(C)C[C@@H]23)c2c(C)cc(-c3cnc(C)nc3)cc12 [Compound 636, (1R,3S,5R)-2-(2-(3-Acetyl-7-methyl-5-(2-methylpyrimidin-5-yl)-1H-indazol-1-yl)acetyl)-N-(6-bromo-3-methylpyridin-2-yl)-5-methyl-2-azabicyclo[3.1.0]hexane-3-carboxamide]
IC50 [3]: < 1000 nM

CC(=O)c1nn(CC(=O)N2[C@H](C(=O)Nc3cncc(C(F)(F)F)n3)C[C@@]3(C)C[C@@H]23)c2ccc(-c3cnc(C)nc3)cc12 [Compound 640, (1R,3S,5R)-2-(2-(3-acetyl-5-(2-methylpyrimidin-5-yl)-1H-indazol-1-yl)acetyl)-5-methyl-N-(6-(trifluoromethyl)pyrazin-2-yl)-2-azabicyclo[3.1.0] hexane-3-carboxamide]
IC50 [3]: < 1000 nM

CC(=O)c1cn(CC(=O)N2C[C@H](F)C[C@H]2C(=O)NCc2cc(F)cc(Cl)c2)c2ccc(-c3ccnnc3)cc12 [Compound 46, (2S,4R)-1-(2-(3-acetyl-5-(pyridazin-4-yl)-1H-indol-1-yl)acetyl)-N-(3-chloro-5-fluorobenzyl)-4-fluoropyrrolidine-2-carboxamide]
IC50 [1]: < 1000 nM

CC(=O)c1cn(CC(=O)N2C[C@H](F)C[C@H]2C(=O)Nc2nc(-c3c(C)nc4sccn34)cs2)c2ccc(-c3ccnnc3)cc12 [Compound 57]
IC50 [1]: > 10000 nM

CC(=O)c1nn(CC(=O)N2C[C@H](F)C[C@H]2C(=O)Nc2cccc(Br)n2)c2ccc(-c3cnc4c(C)cnn4c3)cc12 [Compound 268, (2S,4R)-1-(2-(3-acetyl-5-(3-methylpyrazolo[1,5-a]pyrimidin-6-yl)-1H-indazol-1-yl)acetyl)-N-(6-bromopyridin-2-yl)-4-fluoropyrrolidine-2-carboxamide]
IC50 [4]: < 1000 nM

CC(=O)c1nn(CC(=O)N2C[C@H](F)C[C@H]2C(=O)Nc2cccc(Br)n2)c2ccc(-c3cnc(=O)n(C)c3)cc12 [Compound 702, (2S,4R)-1-(2-(3-Acetyl-5-(1-methyl-2-oxo-1,2-dihydropyrimidin-5-yl)-1H-indazol-1-yl)acetyl)-N-(6-bromopyridin-2-yl)-4-fluoropyrrolidine-2-carboxamide]
IC50 [3]: < 1000 nM

CC(=O)c1cn(CC(=O)N2C[C@H](F)C[C@H]2C(=O)Nc2cccc(-c3ccccc3Cl)c2F)c2ccc(-c3cnc(S(C)(=O)=O)nc3)cc12 [Compound 210, (2S,4R)-1-(2-(3-acetyl-5-(2-(methylsulfonyl)pyrimidin-5-yl)-1H-indol-1-yl)acetyl)-N-(2′-chloro-2-fluorobiphenyl-3-yl)-4-fluoropyrrolidine-2-carboxamide]
IC50 [4]: < 1000 nM

CC(=O)c1cn(CC(=O)N2C[C@H](F)C[C@H]2C(=O)NCCCc2ccccc2)c2ccc(-c3cnc(C)nc3)cc12 [Compound 444, (2S,4R)-1-(2-(3-Acetyl-5-(2-methylpyrimidin-5-yl)-1H-indol-1-yl)acetyl)-4-fluoro-N-(3-phenylpropyl)pyrrolidine-2-carboxamide]
IC50 [2]: < 1000 nM

CC(=O)c1cn(CC(=O)N2C[C@H](F)C[C@H]2C(=O)Nc2cccc(Cl)c2C(F)(F)F)c2ccc(-c3ccnnc3)cc12 [Compound 126, (2S,4R)-1-(2-(3-acetyl-5-(pyridazin-4-yl)-1H-indol-1-yl)acetyl)-N-(3-chloro-2-(trifluoromethyl)phenyl)-4-fluoropyrrolidine-2-carboxamide]
IC50 [1]: > 10000 nM

NC(=O)c1nn(CC(=O)N2C[C@H](F)C[C@H]2C(=O)Nc2cccc(Br)n2)c2ccc(-c3ccnnc3)cc12 [Compound 25, 1-(2-((2S,4R)-2-(6-bromopyridin-2-ylcarbamoyl)-4-fluoropyrrolidin-1-yl)-2-oxoethyl)-5-(pyridazin-4-yl)-1H-indazole-3-carboxamide]
IC50 [1]: < 1000 nM

CC(=O)c1nn(CC(=O)N2C[C@H](F)C[C@H]2C(=O)NC2CCN(C(=O)c3cc(Cl)c[nH]3)CC2)c2ccc(-c3cnc(C)nc3)cc12 [Compound 232, (2S,4R)-1-(2-(3-acetyl-5-(2-methylpyrimidin-5-yl)-1H-indazol-1-yl)acetyl)-N-(1-(4-chloro-1H-pyrrole-2-carbonyl)piperidin-4-yl)-4-fluoropyrrolidine-2-carboxamide]
IC50 [4]: < 1000 nM

CC(=O)c1nn(CC(=O)N2[C@@H]3C[C@@H]3C[C@H]2C(=O)Nc2cncc(Br)n2)c2ccc(-c3cnc(C4CC4)nc3)cc12 [Compound 356, (1R,3S,5R)-2-(2-(3-acetyl-5-(2-cyclopropylpyrimidin-5-yl)-1H-indazol-1-yl)acetyl)-N-(6-bromopyrazin-2-yl)-2-azabicyclo[3.1.0] hexane-3-carboxamide]
IC50 [2]: < 1000 nM

CC(=O)c1nn(CC(=O)N2CCOC[C@@H]2C(=O)Nc2cccc(Br)n2)c2ccc(-c3cnc(C)nc3)cc12 [Compound 748, (R)-4-(2-(3-acetyl-5-(2-methylpyrimidin-5-yl)-1H-indazol-1-yl)acetyl)-N-(6-bromopyridin-2-yl)morpholine-3-carboxamide]
IC50 [3]: < 1000 nM

NC(=O)c1nn(CC(=O)N2C[C@H](F)C[C@H]2C(=O)Nc2ncc(Br)cn2)c2ccc(-c3ccnnc3)cc12 [Compound 109, 1-(2-((2S,4R)-2-(5-bromopyrimidin-2-ylcarbamoyl)-4-fluoropyrrolidin-1-yl)-2-oxoethyl)-5-(pyridazin-4-yl)-1H-indazole-3-carboxamide]
IC50: 1000 to 10000 nM

CCOC(=O)c1cc2ncc(-c3ccc4c(c3)c(C(C)=O)nn4CC(=O)N3C[C@H](F)C[C@H]3C(=O)Nc3cccc(Br)n3)cn2n1 [Compound 287, ethyl 6-(3-acetyl-1-(2-((2S,4R)-2-(6-bromopyridin-2-ylcarbamoyl)-4-fluoropyrrolidin-1-yl)-2-oxoethyl)-1H-indazol-5-yl)pyrazolo[1,5-a]pyrimidine-2-carboxylate]
IC50 [4]: < 1000 nM

CC(=O)c1cn(CC(=O)N2[C@@H]3C[C@@H]3C[C@H]2C(=O)Nc2cncc(Br)n2)c2ccc(-c3cnc4cc(C)nn4c3)cc12 [Compound 331, (1R,3S,5R)-2-(2-(3-acetyl-5-(2-methylpyrazolo[1,5-a]pyrimidin-6-yl)-1H-indol-1-yl)acetyl)-N-(6-bromopyrazin-2-yl)-2-azabicyclo[3.1.0] hexane-3-carboxamide]
IC50 [4]: < 1000 nM

CC(=O)c1nn(CC(=O)N2CCCC[C@@H]2C(=O)Nc2cccc(Br)n2)c2ccc(-c3cnc(C)nc3)cc12 [Compound 592, (R)-1-(2-(3-acetyl-5-(2-methylpyrimidin-5-yl)-1H-indazol-1-yl)acetyl)-N-(6-bromopyridin-2-yl)piperidine-2-carboxamide]
IC50 [3]: > 10000 nM

CC(=O)c1nn(CC(=O)N2C[C@H](F)C[C@H]2C(=O)NCc2cccc(Cl)c2F)c2ccc(-c3cnc4ccnn4c3)cc12 [Compound 236, (2S,4R)-1-(2-(3-acetyl-5-(pyrazolo[1,5-a]pyrimidin-6-yl)-1H-indazol-1-yl)acetyl)-N-(3-chloro-2-fluorobenzyl)-4-fluoropyrrolidine-2-carboxamide]
IC50 [4]: < 1000 nM

CC(=O)c1nn(CC(=O)N2[C@@H]3C[C@@H]3C[C@H]2C(=O)Nc2cccc(Br)n2)c2ccc(-c3cnc(N)nc3)cc12 [Compound 364, (1R,3S,5R)-2-(2-(3-Acetyl-5-(2-aminopyrimidin-5-yl)-1H-indazol-1-yl)acetyl)-N-(6-bromopyridin-2-yl)-2-azabicyclo[3.1.0]hexane-3-carboxamide]
IC50 [2]: < 1000 nM

CC(=O)c1nn(CC(=O)N2C[C@H](F)C[C@H]2C(=O)Nc2nc(-c3ccccc3Cl)cs2)c2ccc(-c3cnc(C)nc3)cc12 [Compound 453, (2S,4R)-1-(2-(3-Acetyl-5-(2-methylpyrimidin-5-yl)-1H-indazol-1-yl)acetyl)-N-(4-(2-chlorophenyl)thiazol-2-yl)-4-fluoropyrrolidine-2-carboxamide]
IC50 [2]: > 10000 nM
